Assay results published in BindingDB's records for doi:10.1128/AAC.00448-06 (National Center For Genetic Engineering and Biotechnology …, 2006).

Key:
[1] = biological target: Bifunctional dihydrofolate reductase-thymidylate synthase (Plasmodium vivax, UniProt O02604); assay: Inhibitor Screening Using Bacterial System (IC50) and Measurement of Inhibition Constant (Ki); settings: pH 7; 25 °C
Method: (§1) Nineteen Pyr analogs were studied for their inhibition activity against cells expressing either WT or SP21 mutant PvDHFR-TS. The assays were conducted with 96-well microplates by monitoring the growth at an optical density of 595 nm (A595). The average A595 of control culture omitting Pyr analogs was scored as 100% growth, and the average readings for the cultures at each drug concentration were divided by this value to obtain relative growth values. The concentrations that inhibited 50% bacterial growth (IC50s) were determined from dose-response curves. Inhibition constants (Ki) of antifolates were calculated using a nonlinear least square fit of the data to the Michaelis-Menten equation, assuming the inhibitor binds competitively to the enzyme active site.

[2] = biological target: T1, Bifunctional dihydrofolate reductase-thymidylate synthase [1-238,S58R,S117N] (Plasmodium vivax, UniProt O02604, S117N/S58R); assay: as above
T1 construct: 1-238
Method: as §1

T1 sequence (O02604 1-238, looked up, stated change not applied): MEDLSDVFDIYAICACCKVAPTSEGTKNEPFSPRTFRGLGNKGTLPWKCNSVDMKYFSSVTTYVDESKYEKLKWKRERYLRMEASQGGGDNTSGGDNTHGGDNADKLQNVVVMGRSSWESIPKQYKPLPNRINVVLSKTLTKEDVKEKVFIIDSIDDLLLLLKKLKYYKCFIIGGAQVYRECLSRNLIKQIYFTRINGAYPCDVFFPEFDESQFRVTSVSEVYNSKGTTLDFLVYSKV
Chain of Bifunctional dihydrofolate reductase-thymidylate synthase (O02604 whole entry): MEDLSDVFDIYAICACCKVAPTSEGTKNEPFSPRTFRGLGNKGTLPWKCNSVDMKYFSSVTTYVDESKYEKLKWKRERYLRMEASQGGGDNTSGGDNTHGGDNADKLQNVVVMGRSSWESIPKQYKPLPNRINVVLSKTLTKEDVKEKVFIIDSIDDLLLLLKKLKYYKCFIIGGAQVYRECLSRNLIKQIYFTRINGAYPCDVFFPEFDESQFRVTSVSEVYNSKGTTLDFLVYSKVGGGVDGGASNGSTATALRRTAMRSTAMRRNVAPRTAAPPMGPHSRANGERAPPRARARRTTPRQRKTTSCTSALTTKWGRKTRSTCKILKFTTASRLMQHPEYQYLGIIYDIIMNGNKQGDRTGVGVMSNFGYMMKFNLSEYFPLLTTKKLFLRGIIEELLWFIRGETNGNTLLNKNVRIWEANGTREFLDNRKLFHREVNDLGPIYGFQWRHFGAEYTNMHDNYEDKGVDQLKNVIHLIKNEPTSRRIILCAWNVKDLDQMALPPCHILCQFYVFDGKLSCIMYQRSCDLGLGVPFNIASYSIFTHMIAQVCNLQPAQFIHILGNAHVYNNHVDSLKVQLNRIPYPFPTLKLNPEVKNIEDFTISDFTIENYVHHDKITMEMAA

SMILES	IC50 [1] [nM]	Ki [1] [nM]	IC50 [2] [nM]	Ki [2] [nM]
Nc1nc(N)c(-c2cccc(Cl)c2)c(CCOCCCOc2ccccc2)n1 [5-(3-chlorophenyl)-6-[2-(3-phenoxypropoxy)ethyl]pyrimidine-2,4-diamine]	2270	0.63	14200	1.53
CCc1nc(N)nc(N)c1-c1ccc(Cl)c(Cl)c1	70	0.52	10500	1.05
Nc1nc(N)c(-c2cccc(Cl)c2)c(CCCc2ccccc2)n1	2380	0.77	13900	1.32
CCc1nc(N)nc(N)c1-c1cccc(Cl)c1 [5-(3-chlorophenyl)-6-ethylpyrimidine-2,4-diamine]	360	0.31	300	0.54
Nc1ncc(-c2ccc(Cl)cc2)c(N)n1 [5-(4-chlorophenyl)pyrimidine-2,4-diamine]	1520	3.42	> 50000	1080
Cc1nc(N)nc(N)c1-c1cccc(Cl)c1 [5-(3-chlorophenyl)-6-methylpyrimidine-2,4-diamine]	2120	0.69	1980	1.19
CCc1nc(N)nc(N)c1-c1ccc(Br)cc1 [5-(4-bromophenyl)-6-ethylpyrimidine-2,4-diamine]	90	0.78	30000	6.59
Cc1nc(N)nc(N)c1-c1ccccc1	11300	4.18	12800	22.5
CC(C)Cc1nc(N)nc(N)c1-c1ccc(Cl)cc1 [5-(4-chlorophenyl)-6-(2-methylpropyl)pyrimidine-2,4-diamine]	220	1.4	18200	28.1
CCc1nc(N)nc(N)c1-c1ccc(OC)cc1	350	1.01	> 50000	37.8
CCc1nc(N)nc(N)c1-c1ccc(C(C)(C)C)cc1 [5-(4-tert-butylphenyl)-6-ethylpyrimidine-2,4-diamine]	1760	1.14	> 50000	47.5
CCCCCCc1nc(N)nc(N)c1-c1ccccc1 [6-hexyl-5-phenylpyrimidine-2,4-diamine]	230		3020	0.9
CCc1nc(N)nc(N)c1-c1ccccc1	1820	0.03	1520	0.08
CCCCCCCCCc1nc(N)nc(N)c1-c1ccc(Cl)cc1 [5-(4-chlorophenyl)-6-nonylpyrimidine-2,4-diamine]	2200	4.29	> 50000	24.5
Nc1nc(N)c(-c2ccccc2)c(CCCc2ccccc2)n1	800	0.53	2760	0.81
Cc1nc(N)nc(N)c1-c1ccc(Cl)cc1	1950	0.78	> 50000	63.4
CCc1nc(N)nc(N)c1-c1ccc(Cl)cc1	180	0.21	20000	3.04
CCc1nc(N)nc(N)c1-c1ccc(C)cc1 [6-ethyl-5-(4-methylphenyl)pyrimidine-2,4-diamine]	140	0.39	12400	2.21
COC(=O)CCCc1nc(N)nc(N)c1-c1ccc(Cl)cc1	200	0.69	> 50000	7.43
